pIC50: −log10 of the molar value.
What was measured:
Human 5-lipoxygenase = biological target: T1, Human 5-lipoxygenase (Homo sapiens, UniProt P09917); experiment: Activity of compounds against 5-LO enzyme (LTB4 measurement and/or fluorescence method); format: biochemical; details: for inhibition at 10 µM: 5-LO, single concentration of 10 uM in duplicate; for pIC50: 6 or 11 point dose response in duplicate
T1 construct: purchased Cayman 60402; host or cells: insect cells
T1 sequence (P09917 1-674): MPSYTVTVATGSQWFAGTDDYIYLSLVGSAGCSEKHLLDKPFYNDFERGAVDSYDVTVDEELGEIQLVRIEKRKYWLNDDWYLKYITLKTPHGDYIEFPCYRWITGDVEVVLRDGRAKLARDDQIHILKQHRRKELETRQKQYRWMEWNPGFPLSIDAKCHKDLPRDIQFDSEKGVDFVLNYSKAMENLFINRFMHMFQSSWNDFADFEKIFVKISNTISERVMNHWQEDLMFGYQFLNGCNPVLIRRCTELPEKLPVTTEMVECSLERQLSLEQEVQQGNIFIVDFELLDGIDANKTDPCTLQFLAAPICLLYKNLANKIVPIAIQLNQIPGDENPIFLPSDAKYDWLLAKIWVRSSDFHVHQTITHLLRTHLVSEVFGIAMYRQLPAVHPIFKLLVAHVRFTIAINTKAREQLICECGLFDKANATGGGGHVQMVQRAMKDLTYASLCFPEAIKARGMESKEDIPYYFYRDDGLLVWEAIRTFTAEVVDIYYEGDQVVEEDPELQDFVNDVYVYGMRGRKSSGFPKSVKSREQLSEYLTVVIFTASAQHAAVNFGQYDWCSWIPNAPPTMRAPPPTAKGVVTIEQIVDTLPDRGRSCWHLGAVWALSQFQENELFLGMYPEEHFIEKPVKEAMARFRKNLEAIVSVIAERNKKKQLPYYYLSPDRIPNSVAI
In short: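 Two read-outs: LTB4 measured by EIA and/or LC/MS/MS with LTB4-d4 standard after 15 min RT compound preincubation with insect-cell 5-LO and a 5 min 37 °C reaction on 3 uM arachidonic acid (0.1 mM ATP, pH 7.4). The room-temperature fluorescence format used 20 uM H2DCFDA, 100 uM ATP, 3 uM arachidonic acid, 5 min; IC50 from 6/11-point curves.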

Compound	inhibition at 10 µM (Human 5-lipoxygenase) [%]	pIC50 (Human 5-lipoxygenase)	melting point
CCc1nc2c(F)cccn2c1C(=O)NCc1ccc(N2CCOCC2)cc1 [compound 242, 2-Ethyl-8-fluoro-N-(4-morpholinobenzyl)imidazo[1,2-a]pyridine-3-carboxamide]	< 40		197.3 °C
CCc1nc2ccc(OC)cn2c1C(=O)NCc1ccc(N2CCN(c3ccc(F)cc3)CC2)cc1 [compound 271, 2-Ethyl-N-(4-(4-(4-fluorophenyl)piperazin-1-yl)benzyl)-6-methoxyimidazo[1,2-a]pyridine-3-carboxamide]	40 to 69		173.8 °C
CCc1nc2ccc(Cl)cn2c1C(=O)NCc1cc2cc(Cl)ccc2o1 [compound 366, 6-chloro-N-((5-chlorobenzofuran-2-yl)methyl)-2-ethylimidazo[1,2-a]pyridine-3-carboxamide]	< 40		223.5 to 225.6 °C
CCc1nc2ncccn2c1CNc1ccc(N2CCN(c3ccc(F)cc3)CC2)cc1 [compound 395, N-((2-Ethylimidazo[1,2-a]pyrimidin-3-yl)methyl)-4-(4-(4-fluorophenyl)piperazin-1-yl)aniline]		> 6.00	210.7 °C
CCc1nc2cc(N3CCN(c4ccccc4)CC3)ccn2c1C(=O)NCc1ccc(C(F)(F)F)cc1 [compound 246, 2-Ethyl-7-(4-phenylpiperazin-1-yl)-N-(4-(trifluoromethyl)benzyl)imidazo[1,2-a]pyridine-3-carboxamide]	< 40		235.2 °C
CCc1nc2c(F)cccn2c1C(=O)NCc1ccc(N2CCC(c3ccc(OC(F)(F)F)cc3)CC2)cc1 [compound 373, 2-ethyl-8-fluoro-N-(4-(4-(4-(trifluoromethoxy)phenyl)piperidin-1-yl)benzyl)imidazo[1,2-a]pyridine-3-carboxamide]	40 to 69		> 177.7 °C (dec.)
CCc1nc2cc(Cl)ccn2c1C(=O)NCC1CCN(Cc2ccc(OC(F)(F)F)cc2)CC1 [compound 140, 7-Chloro-2-ethyl-N-((1-(4-(trifluoromethoxy)benzyl)piperidin-4-yl)methyl)imidazo[1,2-a]pyridine-3-carboxamide]	40 to 69		145 to 146 °C
CCc1nc2cc(Cl)ccn2c1C(=O)NCc1ccc(N2CCC(COc3ccc(OC(F)(F)F)cc3)CC2)cc1 [compound 214, 7-Chloro-2-ethyl-N-(4-(4-((4-(trifluoromethoxy)phenoxy)methyl)piperidin-1-yl)benzyl)imidazo[1,2-a]pyridine-3-carboxamide]	< 40		189.5 °C
CCc1nc2ccc(Cl)cn2c1COc1ccc(OC(F)(F)F)cc1 [compound 143, 6-Chloro-2-ethyl-3-((4-(trifluoromethoxy)phenoxy)methyl)imidazo[1,2-a]pyridine]	> 69		127 to 128 °C
CCc1nc2ccc(Cl)cn2c1C(=O)NCc1nc2cc(Cl)ccc2n1C [compound 368, 6-chloro-N-((5-chloro-1-methyl-1H-benzo[d]imidazol-2-yl)methyl)-2-ethylimidazo[1,2-a]pyridine-3-carboxamide]	< 40		> 220 °C
CCCC(=O)NCc1ccc(N2CCN(c3ccc(CNC(=O)c4c(CC)nc5cc(Cl)ccn45)cc3)CC2)cc1 [compound 125, N-(4-(4-(4-(Butyramidomethyl)phenyl)piperazin-1-yl)benzyl)-7-chloro-2-ethylimidazo[1,2-a]pyridine-3-carboxamide]	40 to 69		238 to 239.2 °C

Next, values leading:

inhibition at 10 µM (Human 5-lipoxygenase) [%]	pIC50 (Human 5-lipoxygenase)	melting point	Compound
> 69	< 4.70	157.2 to 158 °C	CCc1nc2ccc(Cl)cn2c1C(=O)NCc1ccc(N2CC(C)CC(C)C2)cc1 (stereo not drawn) [compound 197, 6-Chloro-N-(4-(3,5-dimethylpiperidin-1-yl)benzyl)-2-ethylimidazo[1,2-a]pyridine-3-carboxamide]
40 to 69		171 to 172 °C	CCc1nc2ccc(Cl)cn2c1C(=O)NCC1CCN(Cc2ccc(OC(F)(F)F)cc2)CC1 [compound 138, 6-Chloro-2-ethyl-N-((1-(4-(trifluoromethoxy)benzyl)piperidin-4-yl)methyl)imidazo[1,2-a]pyridine-3-carboxamide]
< 40		141.7 °C	CCc1nc2ccc(Cl)cn2c1C(=O)NCc1ccc(N2CCC3CCCCC3C2)cc1 (stereo not drawn) [compound 221, 6-Chloro-2-ethyl-N-(4-(octahydroisoquinolin-2(1H)-yl)benzyl)imidazo[1,2-a]pyridine-3-carboxamide]
< 40		186.5 °C	CCc1nc2cc(Cl)ccn2c1C(=O)NCc1ccc(N2CCC(COc3ccc(F)cc3)CC2)cc1 [compound 245, 7-Chloro-2-ethyl-N-(4-(4-((4-fluorophenoxy)methyl)piperidin-1-yl)benzyl)imidazo[1,2-a]pyridine-3-carboxamide]
< 40		165 to 166 °C	CCc1nc2cc(Cl)ccn2c1C(=O)NCc1ccc(N2CC(C)OC(C)C2)cc1 (stereo not drawn) [compound 183, 7-Chloro-N-(4-(2,6-dimethylmorpholino)benzyl)-2-ethylimidazo[1,2-a]pyridine-3-carboxamide]
< 40		132.2 to 133 °C	CCc1nc2ccc(Cl)cn2c1C(=O)NCc1ccc(CC2CCOCC2)cc1 [compound 358, 6-chloro-2-ethyl-N-(4-((tetrahydro-2H-pyran-4-yl)methyl)benzyl)imidazo[1,2-a]pyridine-3-carboxamide]
40 to 69		216.2 to 220.7 °C	CCc1nc2ccc(Cl)cn2c1C(=O)NCc1ccc(C2CCN(C(=O)Cc3ccc(F)cc3)CC2)cc1 [compound 327, 6-chloro-2-ethyl-N-(4-(1-(2-(4-fluorophenyl)acetyl)piperidin-4-yl)benzyl)imidazo[1,2-a]pyridine-3-carboxamide]
< 40		228.2 °C	CCc1nc2ccc(Br)cn2c1C(=O)NCc1ccc(N2CCOCC2)cc1 [compound 240, 6-Bromo-2-ethyl-N-(4-morpholinobenzyl)imidazo[1,2-a]pyridine-3-carboxamide]
> 69	4.70 to 6.00	63.8 °C	CCc1nc2cc(Cl)ccn2c1C(=O)NCc1ccc(N2CCC(Cc3ccccc3)CC2)cc1 [compound 208, N-(4-(4-Benzylpiperidin-1-yl)benzyl)-7-chloro-2-ethylimidazo[1,2-a]pyridine-3-carboxamide]
< 40		207.6 °C	CCc1nc2ccc(C(F)(F)F)cn2c1C(=O)NCc1ccc(N2CCOCC2)cc1 [compound 273, 2-Ethyl-N-(4-morpholinobenzyl)-6-(trifluoromethyl)imidazo[1,2-a]pyridine-3-carboxamide]
40 to 69		166.3 °C	CCc1nc2cc(Cl)ccn2c1C(=O)NCc1ccc(N2CCC(F)(F)CC2)cc1 [compound 236, 7-Chloro-N-(4-(4,4-difluoropiperidin-1-yl)benzyl)-2-ethylimidazo[1,2-a]pyridine-3-carboxamide]
< 40		179.1 to 180 °C	CCc1nc2cc(Cl)ccn2c1C(=O)NCc1ccc(N2CCC(O)CC2)cc1 [compound 199, 7-Chloro-2-ethyl-N-(4-(4-hydroxypiperidin-1-yl)benzyl)imidazo[1,2-a]pyridine-3-carboxamide]
